Reference: patent US7439262B1, “Substituted 1-alkylamino-1-H-indazoles for the treatment of glaucoma” (Alcon, Inc., priority 2003, dated 2008)
Counter-ions that a name gives are not always drawn.

Experiments:
5-HT2A [1] = target: T1, 5-HT2A (Rattus norvegicus, UniProt P14842); experiment: 5-HT2 Receptor Binding Assay ([125I]DOI competition); details: [125I]DOI binding, post mortem rat or human cerebral cortex homogenates
Procedure: 5-HT2 Receptor Binding Assay
Aliquots of post mortem rat or human cerebral cortex homogenates (400 μL) dispersed in 50 mM Tris HCl buffer (pH 7.4) are incubated with [^125I]DOI (80 pM final) in the absence or presence of methiothepin (10 μM final) to define total and non-specific binding, respectively, in a total volume of 0.5 mL. The assay mixture is incubated for 1 hour at 23° C. in polypropylene tubes and the assays terminated by rapid vacuum filtration over Whatman GF/13 glass fiber filters previously soaked in 0.3% polyethyleneimine using ice-cold buffer. Test compounds (at different concentrations) are substituted for methiothepin. Filter-bound radioactivity is determined by scintillation spectrometry on a beta counter. The data are analyzed using a non-linear, iterative curve-fitting computer program [Trends Pharmacol. Sci., 16, 413 (1995)] to determine the compound affinity parameter. The concentration of the compound needed to inhibit the [^125I]DOI binding by 50% of the maximum is termed the […].

5-HT2A [2] = target: T1, 5-HT2A; experiment: 5-HT2 Functional Assay: [Ca2+]i Mobilization (FLIPR); assay type: cell-based; design: endogenous in cells; host or cells: A7r5 rat vascular smooth muscle cells; details: for EC50: [Ca2+]i mobilization, A7r5 rat vascular smooth muscle cells; for Emax: percentage of a maximum 5-HT-induced response, A7r5 cells
Procedure: 5-HT2 Functional Assay: [Ca^2+]i Mobilization
The receptor-mediated mobilization on intracellular calcium ([Ca^2+]i) was studied using the Fluorescence Imaging Plate Reader (FLIPR) instrument. Rat vascular smooth muscle cells, A7r5, were grown in a normal media of DMEM/10% FBS and 10 μg/mL gentamycin. Confluent cell monolayers were trypsinized, pelleted, and re-suspended in normal media. Cells were seeded in a 50 μL volume at a density of 20,000 cells/well in a black wall, 96-well tissue culture plate and grown for 2 days.
On the day of the experiment, one vial of FLIPR Calcium Assay Kit dye was re-suspended in 50 mL of a FLIPR buffer consisting of Hank's Balanced Salt Solution (HBSS), 20 mM HEPES, and 2.5 mM probenecid, pH 7.4. Cells were loaded with the calcium-sensitive dye by addition of an equal volume ([…]) to each well of the 96-well plate and incubated with dye for 1 h at 23° C.
Typically, test compounds were stored at 25 μM in 50% DMSO/50% Ethanol solvent. Compounds were diluted 1:50 in 20% DMSO/20% Ethanol. For “hit” screening, compounds were further diluted 1:10 in FLIPR buffer and tested at a final concentration of 10 μM. For dose-response experiments, compounds were diluted 1:50 in FLIPR buffer and serially diluted 1:10 to give a 5- or 8-point dose-response curve.
The compound plate and cell plate were placed in the FLIPR instrument. At the beginning of an experimental run, a signal test was performed to check the basal fluorescence signal from the dye-loaded cells and the uniformity of the signal across the plate. The basal fluorescence was adjusted between 8000-12000 counts by modifying the exposure time, the camera F-stop, or the laser power. Instrument settings for a typical assay were the following: laser power 0.3-0.6 W, camera F-stop F/2, and exposure time 0.4 sec. An aliquot (25 μL) of the test compound was added to the existing 100 μL dye-loaded cells at a dispensing speed of 50 μL/sec. Fluorescence data were collected in real-time at 1.0 sec intervals for the first 60 secs and at 6.0 sec intervals for an additional 120 secs. Responses were measured as peak fluorescence intensity minus basal and where appropriate were expressed as a percentage of a maximum 5-HT-induced response [Emax %]. When the compounds were tested as antagonists against 10 μM 5-HT, they were incubated with the cells for 15 minutes prior to the addition of 5-HT.

T1 sequence (P14842 whole entry): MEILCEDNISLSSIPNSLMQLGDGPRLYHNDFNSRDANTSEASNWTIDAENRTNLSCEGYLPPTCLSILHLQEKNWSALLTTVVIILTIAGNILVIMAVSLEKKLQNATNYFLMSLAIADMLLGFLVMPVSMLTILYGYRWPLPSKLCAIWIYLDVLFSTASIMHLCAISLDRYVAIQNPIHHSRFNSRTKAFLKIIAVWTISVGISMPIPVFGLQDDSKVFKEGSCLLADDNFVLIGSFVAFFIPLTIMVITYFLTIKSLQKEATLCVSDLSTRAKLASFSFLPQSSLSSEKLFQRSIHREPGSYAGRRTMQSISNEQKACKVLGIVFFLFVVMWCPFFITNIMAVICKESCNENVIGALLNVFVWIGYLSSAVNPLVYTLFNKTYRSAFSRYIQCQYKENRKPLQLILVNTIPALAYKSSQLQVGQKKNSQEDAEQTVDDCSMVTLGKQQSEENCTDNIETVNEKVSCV

## C[C@H](N)Cn1ncc2ccc(C(N)=O)cc21 [Example 2, 1-((S)-2-Aminopropyl)-1H-indazole-6-carboxylic acid amide]
5-HT2A [1]
  IC50: 5.9 nM
5-HT2A [2]
  EC50: 465 nM
  Emax: 90%
other
  melting point: 170 to 172 °C

## CCOC(=O)c1ccc2cnn(C[C@H](C)N)c2c1 [Example 1, 1-((S)-2-Aminopropyl)-1H-indazole-6-carboxylic acid ethyl ester]
5-HT2A [1]
  IC50: 10 nM
5-HT2A [2]
  EC50: 837 nM
  Emax: 86%

## CCOC(=O)c1ccc2cnn(C[C@H](C)N)c2c1 (as salt: fumaric acid salt) [Example 1, 1-((S)-2-Aminopropyl)-1H-indazole-6-carboxylic acid ethyl ester]
other
  melting point: 150 to 152 °C
